Melting point and IC50 data for 14 molecules are collected here from patent US6897317B2, “4-Phenyltetrahydrochinoline utilized as an inhibitor of the cholesterol ester transfer protein” (Bayer Aktiengesellschaft, priority 1997, dated 2005).

System in the first data set: not given
Test: not given
Details: not given
For orientation: melting point means the temperature, or range, at which the solid turns liquid. In turn, `CC1(C)Cc2nc(C3CCCC3)c(C(=O)c3ccc(C(F)(F)F)cc3)c(-c3ccc(F)c(F)c3)c2[C@@H](O)C1` [Example 46] came in with a melting point of 166 to 168 °C.

Take `CC1(C)Cc2nc(C3CCCC3)c([C@@H](F)c3ccc(C(F)(F)F)cc3)c(-c3cccc(F)c3)c2[C@@H](O)C1` [Example 61]: the melting point came out at 129 °C.

Turning to `CC1(C)Cc2nc(C3CCCC3)c(C(=O)c3ccc(C(F)(F)F)cc3)c(-c3ccc(Cl)cc3)c2[C@@H](O)C1` [Example 52], the melting point fell in the range of 168 to 169 °C.

Take `COc1ccc(-c2c(C(=O)c3ccc(C(F)(F)F)cc3)c(C3CCCC3)nc3c2[C@@H](O)CC(C)(C)C3)cc1` [Example 47]: the melting point is 171 to 174 °C.

Molecule `CCOc1ccc(-c2c([C@@H](F)c3ccc(C(F)(F)F)cc3)c(C3CCCC3)nc3c2[C@@H](O)CC(C)(C)C3)cc1.Cl` displayed a melting point of 206 to 207 °C.

The molecule `CC1(C)Cc2nc(C3CCCC3)c([C@@H](F)c3ccc(C(F)(F)F)cc3)c(-c3ccc(Cl)cc3)c2[C@@H](O)C1` [Example 55] had a melting point of 138 to 139 °C.

For the molecule `Cc1ccc(-c2c(Cc3ccc(C(F)(F)F)cc3)c(C3CCCC3)nc3c2[C@@H](O)CC(C)(C)C3)cc1` [Example 62], the melting point is 106 to 108 °C.

The molecule `CC1(C)Cc2nc(C3CCCC3)c(Cc3ccc(C(F)(F)F)cc3)c(-c3ccc(Cl)cc3)c2[C@@H](O)C1` [Example 56] returned a melting point of 136 to 137 °C.

For the molecule `CC1(C)Cc2nc(C3CCCC3)c(C(=O)c3ccc(C(F)(F)F)cc3)c(-c3cccc(F)c3)c2[C@@H](O)C1` [Example 49], the melting point is 167 to 168 °C.

In turn, `CC1(C)Cc2nc(C3CCCC3)c(C(=O)c3ccc(C(F)(F)F)cc3)c(-c3ccc(C(F)(F)F)cc3)c2[C@@H](O)C1` [Example 48] came in with a melting point of 157 to 162 °C.

For the molecule `CC1(C)Cc2nc(C3CCCC3)c([C@@H](F)c3ccc(C(F)(F)F)cc3)c(-c3ccc(C(F)(F)F)cc3)c2[C@@H](O)C1` [Example 54], the melting point fell in the range of 175 to 176 °C.

`Cc1ccc(-c2c(C(=O)c3ccc(C(F)(F)F)cc3)c(C3CCCC3)nc3c2[C@@H](O)CC(C)(C)C3)cc1` [Example 51] yielded a melting point of 153 to 155 °C.

As to `Cc1ccc(-c2c([C@@H](F)c3ccc(C(F)(F)F)cc3)c(C3CCCC3)nc3c2[C@@H](O)CC(C)(C)C3)cc1` [Example 53], the melting point fell in the range of 156 to 158 °C.

The next data set concerns the target T1, cholesterol ester transfer protein (CETP) (Homo sapiens, UniProt P11597).
T1 construct: CETP is obtained in partially purified form from human plasma by differential centrifugation and column chromatography; from tissue; host or cells: human plasma
T1 sequence (P11597 18-493): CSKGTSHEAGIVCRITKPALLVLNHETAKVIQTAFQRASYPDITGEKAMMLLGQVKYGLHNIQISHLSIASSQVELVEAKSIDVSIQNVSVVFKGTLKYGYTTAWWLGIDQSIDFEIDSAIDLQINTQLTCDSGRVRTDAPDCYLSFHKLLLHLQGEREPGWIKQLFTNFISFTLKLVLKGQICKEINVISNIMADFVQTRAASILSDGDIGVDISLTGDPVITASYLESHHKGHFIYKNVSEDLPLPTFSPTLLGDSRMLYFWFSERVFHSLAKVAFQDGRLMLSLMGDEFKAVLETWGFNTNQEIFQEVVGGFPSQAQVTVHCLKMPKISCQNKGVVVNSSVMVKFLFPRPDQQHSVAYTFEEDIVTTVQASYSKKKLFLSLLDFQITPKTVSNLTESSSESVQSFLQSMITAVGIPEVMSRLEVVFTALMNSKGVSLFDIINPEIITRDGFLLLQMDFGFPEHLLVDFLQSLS
Description: CETP inhibition test (3H-cholesterol ester transfer from HDL to biotinylated LDL, SPA). Type of data set: biochemical. Conditions: CETP partially purified from human plasma; 37° C., 18 h; concentration at which transfer is reduced by half. On the procedure:
Preparation of CETP • CETP is obtained in partially purified form from human plasma by differential centrifugation and column chromatography and used for the test. For this purpose, human plasma is adjusted to a density of 1.21 g per ml using NaBr and centrifuged at 50,000 rpm at 4° C. for 18 h. The bottom fraction (d>1.21 g/ml) is applied to a Sephadex®Phenyl-Sepharose 4B (Pharmacia) column, washed with 0.15 m NaCl/0.001 M TrisHCl pH 7.4 and subsequently eluted using dist. water. The CETP-active fractions are pooled, dialysed against 50 mM Na-acetate pH 4.5 and applied to a CM-Sepharose® (Pharmacia) column. Elution is subsequently carried out using a linear gradient (0-1 M NaCl). The pooled CETP fractions are dialysed against 10 mM Tris HCl pH 7.4 and subsequently purified further by chromatography over a Mono Q® column (Pharmacia).
Preparation of Radioactively Labelled HDL • 50 ml of fresh human EDTA plasma are adjusted to a density of 1.12 using NaBr and centrifuged at 4° C. in a Ty 65 rotor at 50,000 rpm for 18 h. […] CETP test • To assess the CETP activity, the transfer of ^3H-cholesterol ester from human HD-lipoproteins to biotinylated LD-lipoproteins is measured. • The reaction is terminated by addition of Streptavidin-SPA® beads (Amersham) and the transferred radioactivity is directly measured in a liquid scintillation counter. • In the assay mixture, […] (˜50,000 cpm) with 10 ml of Biotin-LDL (Amersham) in 50 mM Hepes/0.15 m NaCl/0.1% bovine serum albumin/0.05% NaN3 pH 7.4 are incubated with 10 ml of CETP (1 mg/ml) and 3 ml of a solution of the substance to be tested (dissolved in 10% DMSO/1% BSA) at 37° C. for 18 h. […] of the SPA streptavidin bead solution (TRKQ 7005) are subsequently added, the mixture is incubated with shaking for another 1 h and subsequently measured in a scintillation counter. • The controls used are corresponding incubations with 10 ml of buffer, 10 ml of CETP at 4° C. and 10 ml of CETP at 37° C. • The activity which is transferred in the control experiments with CETP at 37° C. is taken to be 100% transfer. […]
Broadly, the IC50 is the concentration that inhibits the measured activity by half. Higher therefore signals lower potency. Turning to `CC1(C)Cc2nc(C3CCCC3)c([C@@H](F)c3ccc(C(F)(F)F)cc3)c(-c3cccc(F)c3)c2[C@@H](O)C1` [Example 61], it took 23 nM to reach half-maximal inhibition (IC50).

Take `CC1(C)Cc2nc(C3CCCC3)c(C(F)c3ccc(C(F)(F)F)cc3)c(-c3ccc(F)cc3)c2C(C)(O)C1` (single isomer, unassigned) [Example 1, 2-Cyclopentyl-4-(4-fluorophenyl)-3-[fluoro-(4-trifluoromethyl-phenyl)-methyl]-5-methyl-7,7-dimethyl-5,6,7,8-tetrahydro-quinolin-5-ol]: the 50% inhibitory concentration (IC50) came to 6 nM.

On to `Cc1ccc(-c2c([C@@H](F)c3ccc(C(F)(F)F)cc3)c(C3CCCC3)nc3c2[C@@H](O)CC(C)(C)C3)cc1` [Example 53], for which the IC50 came to 10 nM.
